# Active and inactive are the calls of the source.
# Key:
# [1] = target: FAD-linked sulfhydryl oxidase ALR (Homo sapiens, UniProt P55789); assay: inhibitors of human ALR sulfhydryl oxidase, dose response, biochemical, H2O2 detection, luminescence, cherry-pick (AID 493248)
# Cytochrome P450 2C19 = Cytochrome P450 2C19 (Homo sapiens, UniProt P33261); assay: Cytochrome panel assay with activity outcomes. Panel member name: p450-cyp2c19 Compounds with AC50 equal or less than 10 uM are considered active; type: functional; settings: read-out: AC50
# Cytochrome P450 2D6 = Cytochrome P450 2D6 (Homo sapiens, UniProt P10635);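 note: CYP2D6 member of a cytochrome P450 panel assay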
# Cytochrome P450 1A2 = target: T1, Cytochrome P450 1A2 (Homo sapiens, UniProt P05177);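 note: PubChem cytochrome P450 panel assay, CYP1A2 panel member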
# T1 sequence (P05177 whole entry): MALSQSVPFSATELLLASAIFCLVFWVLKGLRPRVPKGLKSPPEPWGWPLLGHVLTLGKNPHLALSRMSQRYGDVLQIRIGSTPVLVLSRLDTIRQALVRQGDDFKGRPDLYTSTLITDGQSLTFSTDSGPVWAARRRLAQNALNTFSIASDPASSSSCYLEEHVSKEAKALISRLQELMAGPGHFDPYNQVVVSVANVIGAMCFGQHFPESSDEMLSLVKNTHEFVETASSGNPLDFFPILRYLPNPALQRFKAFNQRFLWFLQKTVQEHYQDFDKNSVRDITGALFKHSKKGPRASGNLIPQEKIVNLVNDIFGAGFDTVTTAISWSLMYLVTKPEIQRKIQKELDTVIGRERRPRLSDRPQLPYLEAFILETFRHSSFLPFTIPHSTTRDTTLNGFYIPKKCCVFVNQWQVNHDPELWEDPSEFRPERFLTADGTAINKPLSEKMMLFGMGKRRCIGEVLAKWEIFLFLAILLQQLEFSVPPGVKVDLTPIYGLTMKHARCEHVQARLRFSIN
# [2] = target: T2, RNA-binding protein pos-1 (Caenorhabditis elegans, UniProt G5EF15); assay: inhibitors of POS-1/mex-3 RNA binding, dose response, biochemical, fluorescence polarization (AID 1964);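 note: purified POS-1 fused to maltose binding protein made in E. coli; potency of compounds blocking POS-1 binding to fluorescent RNA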
# T2 sequence (G5EF15 whole entry): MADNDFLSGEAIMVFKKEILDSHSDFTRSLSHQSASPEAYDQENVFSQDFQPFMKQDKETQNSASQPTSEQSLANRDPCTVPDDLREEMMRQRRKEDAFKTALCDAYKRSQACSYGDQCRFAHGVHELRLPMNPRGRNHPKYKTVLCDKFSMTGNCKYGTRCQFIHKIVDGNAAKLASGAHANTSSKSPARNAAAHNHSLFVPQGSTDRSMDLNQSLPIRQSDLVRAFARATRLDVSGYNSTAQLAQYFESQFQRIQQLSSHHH
# [3] = target: T3, Zinc finger protein mex-5 (Caenorhabditis elegans, UniProt Q9XUB2); assay: MEX-5/TCR-2 RNA interaction inhibitors, dose response, biochemical, C. elegans, fluorescence polarization (AID 1960)
# T3 sequence (Q9XUB2 whole entry): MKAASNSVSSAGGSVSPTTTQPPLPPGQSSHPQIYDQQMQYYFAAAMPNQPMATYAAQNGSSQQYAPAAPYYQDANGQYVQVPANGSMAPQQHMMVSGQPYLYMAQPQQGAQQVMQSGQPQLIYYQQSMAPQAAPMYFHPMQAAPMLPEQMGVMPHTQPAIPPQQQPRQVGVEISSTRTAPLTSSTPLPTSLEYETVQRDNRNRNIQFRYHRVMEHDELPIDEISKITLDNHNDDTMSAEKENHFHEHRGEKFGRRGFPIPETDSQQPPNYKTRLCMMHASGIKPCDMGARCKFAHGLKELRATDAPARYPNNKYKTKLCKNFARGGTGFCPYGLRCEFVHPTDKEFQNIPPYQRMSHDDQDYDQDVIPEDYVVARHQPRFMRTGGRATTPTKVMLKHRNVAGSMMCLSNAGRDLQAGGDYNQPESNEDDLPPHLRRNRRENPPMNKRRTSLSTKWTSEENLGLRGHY
# [4] = target: T4, Corticotropin-releasing factor receptor 2/Corticotropin-releasing factor-binding protein (Homo sapiens, UniProt P24387+Q13324); assay: activators of CRF receptor 2 with binding protein – uHTS hits, confirmation (AID 602473); type: functional; settings: read-out: EC50_Mean
# T4 sequence (Q13324 whole entry): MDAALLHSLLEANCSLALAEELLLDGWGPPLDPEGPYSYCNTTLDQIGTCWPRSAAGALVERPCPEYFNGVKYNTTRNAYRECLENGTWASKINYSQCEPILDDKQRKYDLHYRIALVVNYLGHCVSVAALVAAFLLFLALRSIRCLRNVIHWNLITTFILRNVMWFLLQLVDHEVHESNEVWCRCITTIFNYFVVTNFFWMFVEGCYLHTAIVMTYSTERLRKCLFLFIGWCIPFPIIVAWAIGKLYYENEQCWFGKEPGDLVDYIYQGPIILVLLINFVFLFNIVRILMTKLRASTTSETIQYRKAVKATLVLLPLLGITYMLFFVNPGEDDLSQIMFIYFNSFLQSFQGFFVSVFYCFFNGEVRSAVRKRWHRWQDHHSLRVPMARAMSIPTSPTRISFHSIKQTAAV
# T4 sequence (P24387 whole entry): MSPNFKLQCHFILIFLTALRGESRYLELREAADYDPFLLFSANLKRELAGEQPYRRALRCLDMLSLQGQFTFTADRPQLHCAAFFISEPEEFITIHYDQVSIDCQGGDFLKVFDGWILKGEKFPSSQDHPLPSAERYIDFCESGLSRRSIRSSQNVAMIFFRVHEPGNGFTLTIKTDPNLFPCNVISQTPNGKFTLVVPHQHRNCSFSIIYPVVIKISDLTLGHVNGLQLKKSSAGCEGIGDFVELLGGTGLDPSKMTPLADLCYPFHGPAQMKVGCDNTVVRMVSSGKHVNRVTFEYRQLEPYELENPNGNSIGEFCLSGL
# [5] = Luminescence Cell-Based Dose Retest to Confirm Inhibitors of Cancer Stem Cells. [Related pubchem assays (depositor defined):AID2717, AID2721]; type: functional; settings: Homo sapiens
# Cytochrome P450 2C9 = Cytochrome P450 2C9 (Homo sapiens, UniProt P11712)
# [6] = microbe, parasite or virus in culture; type: functional; settings: Mycobacterium tuberculosis
# [7] = NIH-3T3 fibroblast cytotoxicity, dose response, cytotoxicity control, cell-based, fluorescence, Alamar Blue, secondary assay (AID 2327); type: functional;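 note: NIH-3T3 mouse fibroblasts cultured with fluconazole at 8 µg/mL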
# [8] = C. albicans growth with fluconazole, confirmation, fluorescence, retest (AID 2467); type: functional, cell-based
# Sequence of Cytochrome P450 2C9 (P11712 whole entry): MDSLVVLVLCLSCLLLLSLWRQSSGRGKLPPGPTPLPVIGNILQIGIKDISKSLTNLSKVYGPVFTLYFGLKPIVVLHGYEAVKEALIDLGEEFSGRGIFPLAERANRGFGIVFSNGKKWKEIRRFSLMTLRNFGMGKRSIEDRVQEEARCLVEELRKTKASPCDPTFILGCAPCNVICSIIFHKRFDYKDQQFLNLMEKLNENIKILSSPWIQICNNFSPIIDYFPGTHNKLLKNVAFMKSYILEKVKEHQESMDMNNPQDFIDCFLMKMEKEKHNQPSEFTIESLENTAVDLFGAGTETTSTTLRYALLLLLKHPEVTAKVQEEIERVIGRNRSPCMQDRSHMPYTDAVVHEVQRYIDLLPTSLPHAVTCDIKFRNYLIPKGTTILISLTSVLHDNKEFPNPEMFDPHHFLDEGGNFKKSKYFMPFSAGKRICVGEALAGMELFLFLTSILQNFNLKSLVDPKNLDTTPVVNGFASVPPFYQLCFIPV
# Sequence of FAD-linked sulfhydryl oxidase ALR (P55789 whole entry): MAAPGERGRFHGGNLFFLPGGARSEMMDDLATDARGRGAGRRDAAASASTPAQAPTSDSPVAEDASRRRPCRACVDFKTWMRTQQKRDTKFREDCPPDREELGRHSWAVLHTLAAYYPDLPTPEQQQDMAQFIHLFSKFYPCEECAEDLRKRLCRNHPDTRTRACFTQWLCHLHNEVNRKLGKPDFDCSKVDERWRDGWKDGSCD
# Sequence of Cytochrome P450 2D6 (P10635 whole entry): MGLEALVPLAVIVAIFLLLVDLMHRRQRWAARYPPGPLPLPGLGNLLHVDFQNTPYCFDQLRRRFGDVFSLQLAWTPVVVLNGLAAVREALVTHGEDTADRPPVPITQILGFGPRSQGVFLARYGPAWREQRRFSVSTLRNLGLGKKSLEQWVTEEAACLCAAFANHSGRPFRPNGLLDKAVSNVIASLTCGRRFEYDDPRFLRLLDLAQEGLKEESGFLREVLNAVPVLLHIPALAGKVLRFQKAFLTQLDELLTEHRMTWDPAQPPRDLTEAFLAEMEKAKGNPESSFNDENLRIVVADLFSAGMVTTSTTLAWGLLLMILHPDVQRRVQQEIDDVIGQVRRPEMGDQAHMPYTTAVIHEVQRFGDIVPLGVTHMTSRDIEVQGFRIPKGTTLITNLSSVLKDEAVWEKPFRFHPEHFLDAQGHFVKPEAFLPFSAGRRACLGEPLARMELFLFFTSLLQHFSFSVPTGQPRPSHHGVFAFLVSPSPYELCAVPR
# Sequence of Cytochrome P450 2C19 (P33261 whole entry): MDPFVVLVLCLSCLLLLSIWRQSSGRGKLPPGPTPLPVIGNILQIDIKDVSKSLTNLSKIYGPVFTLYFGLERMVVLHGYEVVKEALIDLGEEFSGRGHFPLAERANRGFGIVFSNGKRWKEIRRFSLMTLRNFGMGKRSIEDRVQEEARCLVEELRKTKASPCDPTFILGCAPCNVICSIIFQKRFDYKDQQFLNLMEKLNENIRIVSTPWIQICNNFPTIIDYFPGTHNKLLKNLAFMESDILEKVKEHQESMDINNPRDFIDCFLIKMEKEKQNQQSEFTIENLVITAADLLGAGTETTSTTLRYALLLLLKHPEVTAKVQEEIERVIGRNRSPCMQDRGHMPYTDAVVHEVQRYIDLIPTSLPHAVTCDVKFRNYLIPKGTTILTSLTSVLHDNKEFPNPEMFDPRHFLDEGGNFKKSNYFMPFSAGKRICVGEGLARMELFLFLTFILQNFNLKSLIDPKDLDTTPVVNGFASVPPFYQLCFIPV
compound,measurement,setting,value
Nc1[nH]c(N=NC(=O)c2ccc(F)cc2)c2ccccc12,AC50,[1],0.24 µM (active)
COc1ccc(-c2nc3cnc(N4CCNCC4)nc3n(Cc3cccc(OC)c3)c2=O)cc1,AC50,Cytochrome P450 2C19,39.8 µM (inconclusive)
same,AC50,Cytochrome P450 2D6,39.8 µM (inconclusive)
same,AC50,Cytochrome P450 1A2,31.6 µM (inconclusive)
COc1ccccc1NC(=O)/C(C#N)=C/c1cc([N+](=O)[O-])ccc1N1CCCC1,EC50,[2],7.27 µM (inconclusive)
same,EC50,[3],4.59 µM (inconclusive)
same,EC50,[4],7.66 µM (active)
c1ccc(NNC2=NCCCCC2)cc1,AC50,[5],0.898 µM (active)
same,AC50,[1],0.596 µM (active)
Nc1c(-c2ccccc2)cnn1-c1cccc([N+](=O)[O-])c1,AC50,[1],0.125 µM (active)
same,AC50,Cytochrome P450 2C9,28.2 µM (inconclusive)
C[C@@H]1Cc2c(O)c(O)cc(O)c2C(=O)O1,EC50,[2],104 µM (active)
same,EC50,[3],13.5 µM (active)
CCN(CCNC(=O)C1CC(=O)N(CCc2ccccc2)C1)c1ccccc1 (stereo not drawn),AC50,[1],0.288 µM (active)
Cc1ccc(S(=O)(=O)N2CCC(=O)N(C(COCc3ccc(C(F)(F)F)cc3)Cc3ccccc3)CC2)cc1 (stereo not drawn),EC50,[4],4.81 µM (active)
CC(NC(=O)CCl)c1ccc(Cl)c(Cl)c1 (stereo not drawn),CC50,[6],8.91 µM (active)
COC(=O)c1ccc(-n2c(CCC(=O)O)ccc2-c2ccc(C)cc2)cc1,EC50,[2],> 300 µM (not active)
same,EC50,[3],> 300 µM (not active)
O=C(CCl)Nc1cccn2ncnc12,CC50,[6],32.6 µM (active)
CC1=C/C(=C(/c2ccc(O)c(C)c2)c2ccccc2C(=O)O)C=CC1=O,AC50,Cytochrome P450 1A2,3.16 µM (inconclusive)
CNCC[C@H](Oc1ccccc1C)c1ccccc1,AC50,Cytochrome P450 1A2,15.8 µM (inconclusive)
CCn1c(CN2CCCCCC2=O)nnc1SCc1cnc(-c2ccccc2)s1,EC50,[7],68 µM (inconclusive)
same,EC50,[8],1.47 µM (active)
O=C1CS[C@@H](c2ccccc2Cl)c2cc(Cl)ccc2N1,AC50,Cytochrome P450 1A2,39.8 µM (inconclusive)
O=C(CSc1nc(O)c2c(C(F)(F)F)cc(-c3cccs3)nc2n1)Nc1c(F)c(F)c(F)c(F)c1F,AC50,[5],1.04 µM (active)
COc1cc(OC)cc(C(=O)N2CCCC(Nc3ccc(F)cc3)C2)c1 (stereo not drawn),AC50,[1],1.97 µM (active)
O=C(CNS(=O)(=O)c1ccc(Br)s1)NCC1COc2ccccc2O1 (stereo not drawn),EC50,[7],> 150 µM (inactive)
same,EC50,[8],> 38 µM (not active)
Cc1ccc(S(=O)(=O)Nc2ccccc2F)cc1C(=O)NNC(=O)c1ccccc1O,EC50,[2],149 µM (inconclusive)
same,EC50,[3],1.75 µM (inconclusive)
CC1=NN(c2nc(-c3ccc(Cl)cc3)cs2)C(=O)C1,AC50,[5],5.37 µM (active)
C[C@@H](C(=O)NCc1ccc(S(C)(=O)=O)cc1)[C@H]1C[C@]1(C)[C@H](NC(=O)OCc1ccccc1)c1ccccc1,AC50,Cytochrome P450 1A2,12.6 µM (inconclusive)
COc1ccc(/C=C/C(=O)N(c2ccccn2)C2CCCCC2)cc1OC,EC50,[7],> 150 µM (inactive)
same,EC50,[8],> 38 µM (not active)
COc1ccc(C(=O)Nc2ccccc2C(=O)Nc2ccccc2C(=O)O)cc1,EC50,[7],> 160 µM (inactive)
same,EC50,[8],3.49 µM (active)
COc1c(Cl)cc(Cl)cc1CNCCNCCO,AC50,Cytochrome P450 1A2,28.2 µM (inconclusive)
same,AC50,Cytochrome P450 2C9,22.4 µM (inconclusive)
Sc1nc(-c2ccccc2)c[nH]1,AC50,[1],0.904 µM (active)
Cc1noc(C)c1S(=O)(=O)NCCN1CCN(c2ccccc2)CC1,AC50,[1],3.33 µM (active)
CC(=O)c1c(C)nc(-c2cccc([N+](=O)[O-])c2)n1O,EC50,[7],69.2 µM (active)
same,EC50,[8],4.84 µM (active)
Nc1nnc(C(=O)c2ccccc2N)s1,EC50,[2],14.7 µM (active)
same,EC50,[3],3.86 µM (active)
Cc1c(NC(=O)c2ccc([N+](=O)[O-])o2)cccc1-c1nc2ncccc2o1,CC50,[6],> 40 µM (active)
same,AC50,[5],4 µM (active)
CCc1ccccc1N1C(=O)c2cccc3c(N4CCOCC4)c([N+](=O)[O-])cc(c23)C1=O,AC50,Cytochrome P450 1A2,10 µM (inconclusive)
CCn1cc(C=C2C(=O)N(C)C(=O)N(C)C2=O)c2ccccc21,EC50,[2],> 300 µM (not active)
same,EC50,[3],> 300 µM (inconclusive)
C[C@H]([C@@H](N)C(=O)N[C@@H](C(=O)O)[C@@H]1O[C@H](n2ccc(=O)[nH]c2=O)[C@@H](O)[C@H]1O)[C@@H](O)c1ccc(O)cn1,EC50,[7],> 150 µM (inactive)
same,EC50,[8],3.67 µM (active)
C=CCN1C(=O)NC(=O)/C(=C/c2cc3c4c(c2)CCCN4CCC3)C1=O,AC50,[1],2.31 µM (active)
CNc1nc(NCCOC23CC4CC(CC(C4)C2)C3)nc(OCC(F)(F)F)n1,AC50,Cytochrome P450 1A2,12.6 µM (inconclusive)
same,AC50,Cytochrome P450 2C9,15.8 µM (inconclusive)
O=[N+]([O-])c1cccc(-c2nnc(S)n2-c2ccc(Br)cc2)c1,AC50,[1],3.63 µM (active)
Cc1cc(=O)oc(C)c1C(=O)Nc1ccc2ncccc2c1,EC50,[4],24.2 µM (active)
O=C(CSc1nc2ccccc2[nH]1)NCCN1CCCCC1,AC50,Cytochrome P450 2C19,22.4 µM (inconclusive)
same,AC50,Cytochrome P450 2D6,1.78 µM (inconclusive)
same,AC50,Cytochrome P450 1A2,0.316 µM (inconclusive)
CCCn1c(NCc2ccc3c(c2)OCO3)nc2ccccc21,AC50,[1],18.9 µM (active)
Cc1ccc(/C=C2\C(=O)Nc3ccccc32)o1,CC50,[6],> 40 µM (active)
COc1ccc(NC(=O)N2CCC3(CC2)CCN(C(=O)c2cnccn2)CC3)cc1,AC50,Cytochrome P450 1A2,10 µM (inconclusive)
same,AC50,Cytochrome P450 2C9,31.6 µM (inconclusive)
CN(C)c1ccc2c3c(ccc(N(C)C)c13)C(=O)OC2,AC50,[1],8.4 µM (active)
CCOc1nn(-c2ccc(Cl)cc2)c(O)c1/C=N/c1ccc(O)cc1,AC50,Cytochrome P450 1A2,3.55 µM (inconclusive)
same,AC50,Cytochrome P450 2C9,3.55 µM (inconclusive)
COc1ccccc1C1C(C(C)=O)=C(C)N=c2s/c(=C\c3cc(OC)c(OC)c(OC)c3)c(=O)n21 (stereo not drawn),EC50,[2],> 300 µM (not active)
same,EC50,[3],> 300 µM (not active)
